Experiments:
[1] = Drug release from stent coatings, Vankel Bio-Dis release rate tester, HPLC; assay type: physicochemical; conditions: fluid-treated coating, Example 3
Protocol: The drug-coated stents were placed on stent holders of a Vankel Bio-Dis release rate tester (Vankel, Inc., Cary, N.C.). 3 stents from each test group were dipped into an artificial medium for about 1 hour to extract the 40-O-(2-hydroxy)ethyl-rapamycin from the stent coatings. The artificial medium included phosphate buffer saline solution (10 mM, pH 7.4) and 1% TRITON X-100 Sigma Corporation) which stabilizes the 40-O-(2-hydroxy)ethyl-rapamycin in the testing solution. Each stent was tested in a separate testing solution to prevent cross-contamination. After extraction, each of the solutions was separately analyzed for the amount of drug released from the stent coatings by high pressure liquid chromatography (HPLC). The HPLC system consisted of a Waters 2690 system. After the drug solutions were analyzed by HPLC, the results were quantified by comparing the release rate results with a reference standard.
Each of the stents was then dipped in fresh extraction solutions for another 6 hours (7 hours total). The solutions were analyzed by HPLC as described above. […] The solutions were again analyzed by HPLC as described above.
The drug release profile could then be generated by plotting cumulative drug released in the medium vs. time. The percentage of drug released at a specific time was determined by comparing the cumulative drug released with the total content data. […]

[2] = Release of 40-O-(2-hydroxy)ethyl-rapamycin from a standard polymeric coating in release media; assay type: physicochemical; conditions: in about 24 hours, certain release media

decrease of release rate as compared to a control group [1]: about 50%
release rate from a standard polymeric coating [2]: greater than 50%
Structure (SMILES): CO[C@H]1C[C@@H]2CC[C@@H](C)[C@@](O)(O2)C(=O)C(=O)N2CCCC[C@H]2C(=O)O[C@H]([C@H](C)C[C@@H]2CC[C@@H](OCCO)[C@H](OC)C2)CC(=O)[C@H](C)/C=C(\C)[C@@H](O)[C@@H](OC)C(=O)[C@H](C)C[C@H](C)/C=C/C=C/C=C/1C [40-O-(2-hydroxy)ethyl-rapamycin]
